Source: publication PMC5945515, “Measuring glucocorticoid receptor expression in vivo with PET” (Oncotarget, 2018)
Read-outs that look alike come from different tables or passages of the source.

How the values were obtained:
huPR = target: T1, huPR (Homo sapiens, UniProt P06401); test: Competition binding assay on cells, human PR; conditions: MCF7 cells, displacing 3H-progesterone
T1 construct: DU145 (GR), LNCaP-AR (AR), MCF7 (PR, ER), GL261 (mouse GR), and 9L (rat GR); endogenous in cells; host or cells: MCF7
T1 sequence (P06401 1-933): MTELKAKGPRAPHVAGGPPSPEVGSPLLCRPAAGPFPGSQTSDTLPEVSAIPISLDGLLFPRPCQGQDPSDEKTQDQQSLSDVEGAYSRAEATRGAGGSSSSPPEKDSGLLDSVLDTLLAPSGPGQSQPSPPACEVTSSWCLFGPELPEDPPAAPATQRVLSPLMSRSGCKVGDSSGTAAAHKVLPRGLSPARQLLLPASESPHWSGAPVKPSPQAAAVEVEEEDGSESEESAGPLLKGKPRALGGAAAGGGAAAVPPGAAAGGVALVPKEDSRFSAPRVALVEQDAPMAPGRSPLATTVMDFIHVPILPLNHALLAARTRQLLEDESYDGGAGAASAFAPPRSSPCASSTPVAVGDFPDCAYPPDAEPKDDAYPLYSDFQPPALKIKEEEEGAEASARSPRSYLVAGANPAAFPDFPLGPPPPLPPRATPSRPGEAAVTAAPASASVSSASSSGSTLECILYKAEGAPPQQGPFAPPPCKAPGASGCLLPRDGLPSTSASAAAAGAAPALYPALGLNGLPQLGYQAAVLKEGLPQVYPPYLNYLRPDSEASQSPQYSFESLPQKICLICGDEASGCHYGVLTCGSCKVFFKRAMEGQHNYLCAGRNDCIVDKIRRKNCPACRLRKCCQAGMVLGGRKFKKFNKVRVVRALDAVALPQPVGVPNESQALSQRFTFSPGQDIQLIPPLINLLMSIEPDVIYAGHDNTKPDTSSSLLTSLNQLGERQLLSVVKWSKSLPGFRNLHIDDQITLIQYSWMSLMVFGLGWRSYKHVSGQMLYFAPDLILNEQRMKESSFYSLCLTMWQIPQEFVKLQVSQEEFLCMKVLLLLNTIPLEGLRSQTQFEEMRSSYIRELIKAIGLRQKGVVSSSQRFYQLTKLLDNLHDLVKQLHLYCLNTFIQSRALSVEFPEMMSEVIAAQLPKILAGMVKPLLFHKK
Experimental: (§1) The KD for subfamily 3 group C nuclear hormone receptors was determined on cells by displacing ^3H-steroidal agonists for the respective receptor.
(§2) The cold ligands and ^3H-steroids were co-incubated on cells in PBS at room temperature for one hour. Following incubation, the cells were washed twice with ice cold PBS and the unbound activity was retained for analysis. The cells were lysed with 1 mL of 1 M NaOH and collected. Bound and unbound fractions were counted in a liquid scintillation counter and expressed as a percentage of the total activity added per equal relative number of cells. […] The specific binding component was plotted against the log of the competing ligand and curve fit using a non-linear regression algorithm with PRISM software.

human GR = target: T2, human GR (Homo sapiens, UniProt P04150); test: Competition binding assay on cells, human GR
T2 construct: PC3 and DU145, two human prostate cancer models with endogenous GR expression; endogenous in cells; host or cells: DU145
T2 sequence (P04150 1-777): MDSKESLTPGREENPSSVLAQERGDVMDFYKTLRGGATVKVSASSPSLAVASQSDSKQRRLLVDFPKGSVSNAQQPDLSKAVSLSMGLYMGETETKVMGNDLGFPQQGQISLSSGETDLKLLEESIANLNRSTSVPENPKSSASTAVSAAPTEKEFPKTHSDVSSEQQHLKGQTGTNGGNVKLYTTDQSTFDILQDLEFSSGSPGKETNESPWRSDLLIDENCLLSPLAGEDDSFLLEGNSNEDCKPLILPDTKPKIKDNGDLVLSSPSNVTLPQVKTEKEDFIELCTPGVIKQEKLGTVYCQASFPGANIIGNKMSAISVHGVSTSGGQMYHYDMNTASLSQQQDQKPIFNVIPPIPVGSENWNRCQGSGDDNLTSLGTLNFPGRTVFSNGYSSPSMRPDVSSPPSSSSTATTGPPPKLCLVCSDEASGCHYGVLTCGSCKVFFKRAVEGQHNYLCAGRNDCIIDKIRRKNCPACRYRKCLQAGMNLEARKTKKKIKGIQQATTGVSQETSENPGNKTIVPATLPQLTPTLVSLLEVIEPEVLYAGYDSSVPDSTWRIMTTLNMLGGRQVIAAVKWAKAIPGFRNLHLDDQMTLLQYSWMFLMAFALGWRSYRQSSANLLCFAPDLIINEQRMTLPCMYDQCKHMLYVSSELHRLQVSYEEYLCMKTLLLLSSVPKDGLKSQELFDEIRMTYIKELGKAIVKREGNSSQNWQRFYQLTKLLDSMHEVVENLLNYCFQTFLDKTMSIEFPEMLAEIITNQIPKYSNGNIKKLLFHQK
Experimental: as §1, §2

huER = target: T3, huER (Homo sapiens, UniProt P03372); test: Competition binding assay on cells, human ER; conditions: MCF7 cells, displacing 3H-estradiol
T3 construct: DU145 (GR), LNCaP-AR (AR), MCF7 (PR, ER), GL261 (mouse GR), and 9L (rat GR); endogenous in cells; host or cells: MCF7
T3 sequence (P03372 1-595): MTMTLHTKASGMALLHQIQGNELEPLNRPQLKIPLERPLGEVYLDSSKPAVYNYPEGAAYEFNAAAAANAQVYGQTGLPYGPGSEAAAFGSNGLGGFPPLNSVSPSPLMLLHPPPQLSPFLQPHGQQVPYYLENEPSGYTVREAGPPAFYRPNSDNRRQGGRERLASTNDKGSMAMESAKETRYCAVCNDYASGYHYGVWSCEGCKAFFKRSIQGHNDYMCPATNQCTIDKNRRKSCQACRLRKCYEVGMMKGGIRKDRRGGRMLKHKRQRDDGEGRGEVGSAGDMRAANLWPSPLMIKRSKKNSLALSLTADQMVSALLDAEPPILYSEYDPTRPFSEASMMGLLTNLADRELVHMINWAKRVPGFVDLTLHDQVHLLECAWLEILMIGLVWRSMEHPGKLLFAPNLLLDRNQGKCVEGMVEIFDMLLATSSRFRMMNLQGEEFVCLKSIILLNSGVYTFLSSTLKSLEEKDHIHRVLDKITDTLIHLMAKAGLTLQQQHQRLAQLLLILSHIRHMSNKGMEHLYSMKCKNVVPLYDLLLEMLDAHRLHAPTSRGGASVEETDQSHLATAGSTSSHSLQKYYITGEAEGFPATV

[1] = DU145 cells, displacing 3H-dexamethasone, read-out: KD huGR

Compound	Kd (huPR) [µM]	Kd (human GR; [1]) [µM]	Kd (human GR; Supplementary Table 1, read-out: KD for human GR) [µM]	Kd (huER) [µM]
C[C@]12C=CC(=O)C=C1CCC1C2[C@@H](O)C[C@@]2(C)C1CC[C@]2(O)C(=O)COCCCF (stereo partly shown) [GR01]	1.06	0.00386	0.0038	0.978
C[C@]12C=CC(=O)C=C1CCC1C2[C@@H](O)C[C@@]2(C)C1CC[C@]2(O)C(=O)CNC(=O)c1ccc(F)cc1 (stereo partly shown) [GR02]	0.242	0.0159		20.7
